Where “and” joins values, the source holds several entries; their conditions need not be identical. Equal values may be shown once.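 1) Cells in 96-well plates. 2) Compound, 48 h, 5 concentrations. 3) Linear interpolation between surrounding doses. 4) Unreached endpoint = highest concentration. GI50 is the concentration that inhibits growth by half. TGI is the concentration that stops growth completely.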
Experiments:
Assay in all cases: growth of human tumour cells (NCI), 48 h
IGROV1 ovarian = system: IGROV1 ovarian
LOX IMVI melanoma = system: LOX IMVI melanoma
MCF7 breast = system: MCF7 breast
MDA-MB-231 breast = system: MDA-MB-231 breast
MDA-MB-435 = system: MDA-MB-435
MDA-N = system: MDA-N
MOLT-4 leukemia = system: MOLT-4 leukemia
SK-MEL-2 melanoma = system: SK-MEL-2 melanoma
SR leukemia = system: SR leukemia
UACC-62 melanoma = system: UACC-62 melanoma

SMILES | TGI (IGROV1 ovarian) | TGI (LOX IMVI melanoma) | TGI (MCF7 breast) | TGI (MDA-MB-231 breast) | TGI (MDA-MB-435) | TGI (MDA-N) | TGI (MOLT-4 leukemia) [µM] | TGI (SK-MEL-2 melanoma) | TGI (SR leukemia) | TGI (UACC-62 melanoma) | GI50 (SR leukemia) | GI50 (MOLT-4 leukemia) | GI50 (UACC-62 melanoma)
CN1CCN(C(=O)c2cn(Cc3cncn3Cc3ccc4c(c3)OCO4)cc2-c2cccc3ccccc23)CC1 | > 100 µM | 47.8 µM | > 83.6 µM | 33.3 µM | > 58.9 µM | > 100 µM | 33.6 | 20.8 µM | 10.3 µM | 46.8 µM |  |  | 
CCCCCC[C@H]([C@H](C)O)n1cnc2c(N)ncnc21 | > 100 µM | > 100 µM | > 100 µM | > 100 µM | > 100 µM | > 100 µM | > 100 | > 100 µM | > 100 µM | > 100 µM |  |  | 
Clc1ccc2c(NCCCCCCNc3ccnc4cc(Cl)ccc34)ccnc2c1 | 14.5 µM | 3.35 µM | 7.27 µM | 10.2 µM | 12.5 µM | 8.86 µM | 8.09 | 12.7 µM | 19.3 µM | 8.66 µM |  |  | 
COC1CC(C)(NC(=O)C(F)(F)F)C2OC(c3ccccc3)OCC2O1 (configuration not stated) | > 100 µM | > 100 µM | > 100 µM | > 100 µM | > 100 µM | > 100 µM | > 100 |  | > 100 µM | > 100 µM |  |  | 
COC(=N)C1(C#N)NC(c2ccsc2)C(C#N)(C#N)NC1c1ccsc1 (configuration not stated) | > 100 µM | > 100 µM | > 100 µM | > 100 µM | > 100 µM | > 100 µM | > 100 | > 100 µM | > 100 µM | > 100 µM |  |  | 
Cc1nc2c(Br)cc(Br)cc2c(=O)n1-c1ccccc1NC1OC(CO)C(O)C(O)C1O (configuration not stated) | > 100 µM | > 100 µM | > 100 µM | > 100 µM | > 100 µM | > 100 µM | > 100 | > 100 µM | > 100 µM | > 100 µM | > 100 µM and 44.8 µM |  | 
CC(=O)NC1C(OCc2ccccc2)OC(CO)C(O)C1OC(C)C(=O)N[C@@H](C)C(=O)N[C@H](CCC(=O)NCCNCCNc1c2ccccc2nc2cccc([N+](=O)[O-])c12)C(N)=O (some centres not stated) | 0.672 µM | 0.534 µM | 2.17 µM | 0.639 µM | 0.235 µM | 0.305 µM | > 100 | 0.138 µM | > 71.4 µM | 0.199 µM |  |  | 
CC(=O)n1[nH]c(=O)n(-c2ccc(Cl)cc2)c1=O | > 100 µM | > 100 µM | > 100 µM | > 100 µM | > 100 µM | > 100 µM | > 100 | > 100 µM | > 100 µM | > 100 µM |  |  | 
Cc1ccccc1NC(=O)O/N=C(\Cl)C(C)C | 27.6 µM | 3.11 µM | 22.1 µM | 32.7 µM | 30.1 µM | 8.58 µM | > 28 | 32.6 µM | > 100 µM | 28.3 µM |  |  | 
CCC1(O)CC(CCN(Cc2ccccc2)C(=O)OCc2ccccc2)C(OCc2ccccc2)C1O (configuration not stated) | 37.4 µM | 86.7 µM | 28.8 µM | 87.3 µM | 38.2 µM | 98.8 µM | 7.56 | 28.7 µM | 34.9 µM | 28.3 µM |  |  | 
C[C@]12CC[C@H]3[C@@H](CC=C4C[C@@H](N5CCCC5)CC[C@@]43C)[C@@H]1C[C@H](N1CCCCC1)[C@@H]2O | > 100 µM | > 100 µM | > 100 µM | > 100 µM | > 100 µM | > 100 µM | > 100 |  | 35.7 µM | > 100 µM |  |  | 
O=C(O)C(Cc1ccccc1)NCc1c(O)ccc2c(-c3ccccc3)cc(=O)oc12 (configuration not stated) | > 100 µM | > 100 µM | > 100 µM | > 100 µM | > 100 µM | > 100 µM | > 100 | > 100 µM | > 100 µM | > 100 µM |  |  | 
CC(C)(C)C1CCC2c3c([nH]c4ccccc34)C3C(=O)N(c4ccc([N+](=O)[O-])cc4)C(=O)C3C2C1 (configuration not stated) | > 100 µM | 20.8 µM | 17.9 µM | 48.4 µM | > 100 µM | > 100 µM | 56.8 | 29.3 µM | 19.7 µM | 39 µM |  |  | 
COC(=O)c1c2c(cc3c1CC1(Cc4cc5c(c(C=O)c4C1)CCC5)C3)CCC2 (configuration not stated) | > 100 µM | 56.5 µM | > 100 µM | 91.7 µM | 50.5 µM | > 100 µM | 59.1 | 72 µM | 53.7 µM |  |  |  | 
COC(=O)C1OC(O[C@H]2CC[C@]3(C)[C@H]4CC=C5[C@@H]6CC(C)(C)CC[C@]6(C(=O)OC6OCC(O)C(O)C6OC6OC(C)C(OC7OCC(O)C(O)C7O)C(O)C6O)[C@H](O)C[C@@]5(C)[C@]4(C)CC[C@H]3C2(C)C)C(O)C(O)C1O (some centres not stated) | > 80.4 µM and 26.8 µM | 19.6 µM and 14.5 µM | 10.3 µM and 4.43 µM | 7.48 µM and 4.39 µM | 3.78 µM and 5.21 µM | 3.77 µM and 12.1 µM | > 100 | 7.83 µM and 7.96 µM | > 100 µM and 13.4 µM | 8.55 µM and 21.7 µM |  | > 42.6 µM and 14.2 µM | 2.89 µM and 7.04 µM
O=[N+]([O-])c1ccc(-n2nc3ccc4nonc4c3n2)cc1 | > 100 µM | > 100 µM | > 100 µM | > 100 µM | > 100 µM | > 100 µM | > 100 | > 100 µM | > 100 µM | > 100 µM |  |  | 
O=c1[nH]c(=O)n(COC(CO)CO)cc1-c1ccccc1 | > 100 µM | > 100 µM | > 100 µM | > 100 µM | > 100 µM | > 100 µM | > 100 | > 100 µM | > 100 µM | > 100 µM |  |  | 
N#Cc1c(NC(=S)Nc2ccc(Cl)cc2)sc2c1CCN(N1CCc3c(sc(NC(=S)Nc4ccc(Cl)cc4)c3C#N)C1)C2 | 47.8 µM | 23.4 µM | > 100 µM | 27.2 µM | > 100 µM | > 100 µM | > 100 | 50.2 µM | > 100 µM | 41.8 µM |  |  | 
N#CCCC(C=O)(CCC#N)CCC#N | > 100 µM | > 100 µM | > 100 µM | > 100 µM | > 100 µM | > 100 µM |  | > 100 µM | > 100 µM | > 100 µM |  |  | 
C/C(=N\Nc1nc2ccccc2s1)c1ccncn1 | 4.39 µM |  | > 100 µM | > 46.9 µM | > 100 µM | > 100 µM |  | 31.8 µM | > 100 µM | > 26.5 µM |  |  | 

Source: PubChem BioAssay (NCI)
